This passage reports CC50, IC50 and selectivity ratio results from ChEMBL document CHEMBL6182947, “Discovery of Phloroglucinol Derivatives as a New Type of Nonnucleoside Inhibitors with Anti-herpes Simplex Virus Type 1 Activity” (J Med Chem, 2025).

A short description of data set [1]: Cytotoxicity against African green monkey Vero cells assessed as cell viability measured after 24 hrs incubation by MTT assay. It counts as toxicity, cell-based. To be noted: chlorocebus sabaeus. For orientation: Tetrazolium dyes change colour on reduction, which living cells bring about.
The subject of another data set is Human alphaherpesvirus 1. Put plainly: Antiviral activity against HSV1 infected in African green monkey Vero cells assessed as reduction of virus-induced cytopathic effect measured after 48 hrs of incubation. To be noted: Human alphaherpesvirus 1, Vero. The class given is functional, organism-based. A general note: Cytopathic effects are the visible damage that an infection or toxin causes in cultured cells.

The nature of data set [2]: Selectivity index, ratio of CC50 for Cytotoxicity against african green monkey Vero cells to IC50 for Antiviral activity against HSV1 infected in African green monkey Vero cells. The class given is toxicity, cell-based. To be noted: read-out: Selectivity Index.

Consider `CC(C)CC(O)c1c(O)cc2c(c1O)C(CC(C)C)C1=C(O2)C(C)(C)C(=O)C(C)(C)C1=O` (configuration not stated), for which the CC50 at 24 h in data set [1] was > 100 µM. Moreover, in the data set with Human alphaherpesvirus 1, the IC50 is > 100 µM.

As for `CC(=O)c1c(O)cc2c(c1O)C(CC(C)C)C1=C(O2)C(C)(C)C(=O)C(C)(C)C1=O` (configuration not stated), the selectivity ratio in data set [2] was 13.4. In addition, in data set [1], the cytotoxic concentration (CC50) at 24 h is 12.5 µM. Besides, the 50% inhibitory concentration (IC50) in the data set with Human alphaherpesvirus 1 amounted to 0.9 µM.

`CCC1C2=C(Oc3c(C(=O)CC(C)C)c(O)cc(O)c31)C(C)(C)C(=O)C(C)(C)C2=O` (racemic): the selectivity ratio in data set [2] was < 10. The half-maximal cytotoxic concentration (CC50) at 24 h in data set [1] was 10 µM. For the same compound, the half-maximal inhibitory concentration (IC50) with Human alphaherpesvirus 1 amounted to 1.5 µM.

For `CC(C)CC(=O)c1c(O)cc(O)c2c1OC1=C(C(=O)C(C)(C)C(=O)C1(C)C)C2CC(C)C` (racemic), in data set [2], the selectivity ratio amounted to 4.44. In addition, the CC50 at 24 h in data set [1] is 10 µM. Moreover, the half-maximal inhibitory concentration (IC50) in the data set with Human alphaherpesvirus 1 was determined as 2.25 µM.

`CC(C)CC(=O)c1c(O)cc2c(c1O)[C@@H](CC(C)C)C1=C(C[C@H](C)CC1=O)O2`: in data set [2], the selectivity ratio worked out at 7. For the same compound, the CC50 at 24 h in data set [1] was 14 µM. Moreover, in the data set with Human alphaherpesvirus 1, the IC50 came out at 2 µM.

Take `CC(C)C(=O)c1c(O)cc2c(c1O)C(C(C)C)C1=C(O2)C(C)(C)C(=O)C(C)(C)C1=O` (racemic): the selectivity ratio in data set [2] turned out to be 26.8. Further, in data set [1], the CC50 at 24 h turned out to be 20.9 µM. Further, in the data set on Human alphaherpesvirus 1, the IC50 was found to be 0.78 µM.

Turning to `CC(C)CC(=O)c1c(O)cc2c(c1O)[C@H](CC(C)C)C1=C(C[C@H](C)CC1=O)O2`, the selectivity ratio in data set [2] came out at 8.89. For the same compound, the 50% cytotoxic concentration (CC50) at 24 h in data set [1] came out at 20 µM. The IC50 in the data set on Human alphaherpesvirus 1 worked out at 2.25 µM.

As to `CC(C)CC(=O)c1ccc2c(c1O)C(CC(C)C)C1=C(O2)C(C)(C)C(=O)C(C)(C)C1=O` (configuration not stated), the CC50 at 24 h in data set [1] is > 100 µM. In addition, in the data set with Human alphaherpesvirus 1, the IC50 worked out at 50 µM.

For the compound `CC(C)CC1C2=C(Oc3cc(O)cc(O)c31)C(C)(C)C(=O)C(C)(C)C2=O` (configuration not stated), the selectivity ratio in data set [2] turned out to be 1.86. Further, the CC50 at 24 h in data set [1] was found to be 13 µM. For the same compound, the IC50 in the data set on Human alphaherpesvirus 1 came to 7 µM.

As to `CC(C)CC(=O)c1c(O)cc(O)c2c1OC1=C(C(=O)C(C)(C)C(=O)C1(C)C)C2C(C)C` (racemic), the selectivity ratio in data set [2] was < 4. In addition, the half-maximal cytotoxic concentration (CC50) at 24 h in data set [1] turned out to be 10 µM. In the data set with Human alphaherpesvirus 1, the half-maximal inhibitory concentration (IC50) is 3.75 µM.

As to `CC(C)CC(=O)c1c(O)c(C=O)c2c(c1O)C(CC(C)C)C1=C(O2)C(C)(C)C(=O)C(C)(C)C1=O` (configuration not stated), the selectivity ratio in data set [2] amounted to 3.6. Further, in data set [1], the CC50 at 24 h was determined as 9 µM. Further, in the data set with Human alphaherpesvirus 1, the IC50 worked out at 2.5 µM.

With `CC(C)CC(=O)c1c(O)cc(O)c2c1OC1=C(C(=O)C(C)(C)C(=O)C1(C)C)C2c1ccccc1` (racemic), the selectivity ratio in data set [2] was found to be 5.11. Moreover, in data set [1], the CC50 at 24 h turned out to be 12.8 µM. In the data set with Human alphaherpesvirus 1, the IC50 was 2.5 µM.

In the case of `CC(C)C1C2=C(Oc3cc(O)cc(O)c31)C(C)(C)C(=O)C(C)(C)C2=O` (configuration not stated), the selectivity ratio in data set [2] was found to be 2.22. Further, the CC50 at 24 h in data set [1] turned out to be 20 µM. Moreover, the half-maximal inhibitory concentration (IC50) in the data set with Human alphaherpesvirus 1 came to 9 µM.

Turning to `COc1cc2c(c(O)c1C(=O)CC(C)C)C(CC(C)C)C1=C(O2)C(C)(C)C(=O)C(C)(C)C1=O` (configuration not stated), in data set [1], the CC50 at 24 h was > 100 µM. Besides, the half-inhibitory concentration (IC50) in the data set with Human alphaherpesvirus 1 was > 100 µM.

Regarding `CC(C)CC(=O)c1c(O)cc2c(c1O)[C@@H](CC(C)C)C1=C(O2)C(C)(C)C(=O)C(C)(C)C1=O`, in data set [2], the selectivity ratio amounted to 18.3. Further, the 50% cytotoxic concentration (CC50) at 24 h in data set [1] came to 7.5 µM. For the same compound, the 50% inhibitory concentration (IC50) in the data set on Human alphaherpesvirus 1 stood at 0.41 µM.

`CC(C)CC(=O)c1c(O)cc2c(c1O)C(C)C1=C(O2)C(C)(C)C(=O)C(C)(C)C1=O` (racemic): in data set [2], the selectivity ratio is < 18.8. For the same compound, the half-maximal cytotoxic concentration (CC50) at 24 h in data set [1] came to 10 µM. In addition, in the data set with Human alphaherpesvirus 1, the IC50 stood at 0.8 µM.

In the case of `CC(C)CC(=O)c1c(O)cc2c(c1O)C(CC(C)C)C1=C(CCC(C)(C)C1=O)O2` (configuration not stated), the selectivity ratio in data set [2] stood at 7.27. The half-maximal cytotoxic concentration (CC50) at 24 h in data set [1] came out at 16 µM. Further, the IC50 with Human alphaherpesvirus 1 stood at 2.2 µM.

Regarding `COc1cc2c(c(OC)c1C(=O)CC(C)C)C(CC(C)C)C1=C(O2)C(C)(C)C(=O)C(C)(C)C1=O` (configuration not stated), the CC50 at 24 h in data set [1] was > 100 µM. In the data set with Human alphaherpesvirus 1, the half-inhibitory concentration (IC50) turned out to be 50 µM.

For `COc1c(C(=O)CC(C)C)c(O)cc2c1C(CC(C)C)C1=C(O2)C(C)(C)C(=O)C(C)(C)C1=O` (configuration not stated), the cytotoxic concentration (CC50) at 24 h in data set [1] was > 100 µM. Further, in the data set with Human alphaherpesvirus 1, the IC50 was 50 µM.

In general, CC50 refers to the concentration giving 50% cytotoxicity. By IC50 is commonly meant the concentration needed to halve the response being measured.
